From patent publication US8101352B2, “Detection of ESR1 amplification in breast cancer” (Universitatsklinikum Hamburg-Eppendorf, priority 2006, dated 2012)

Tested on: breast cancer patients
Assay: Prognostic relevance of ESR1 alterations in breast cancer treated with Tamoxifen (tissue microarray FISH/IHC with survival analysis)
Type: in vivo, human
Text: Contingency table analysis and Chi-square tests were used to study the relationship between histologic tumor type, grade, stage and gene amplification. Survival curves were plotted according to Kaplan-Meier. A log rank test was applied to examine the relationship between gene amplifications and patient survival.
2.1 The general results obtained by CGH were verified by fluorescence in situ hybridization (FISH) using existing tissue microarrays. A breast cancer Prognosis Tissue Microarray containing more than 2517 breast tissues was analyzed. […]
2.3 The TMA sections were treated according to the Paraffin Pretreatment Reagent Kit protocol (Vysis, Downers Grove, Ill.) before hybridization. […] In a second more refined analysis FISH signal numbers of the ESR1 gene and centromere 6 were counted in each tissue spot. […]
3.1 Immunohistochemical detection of the estrogen receptor alpha protein was performed using the above described TMAs and antibody NCL-L-ER-6F11 as a primary antibody (Novocastra, Newcastle, UK). […] In brief, intensity of the estrogen receptor staining was recorded in a 4-step scale (0-3) and the fraction of ER positive tumor cells in a 5-step (1-5) scale. […]

CC/C(=C(\c1ccccc1)c1ccc(OCCN(C)C)cc1)c1ccccc1 [Tamoxifen]
prognosis of Tamoxifen treated patients with ESR1 amplification (Tamoxifen monotherapy after surgery, ESR1 amplified versus ER positive by IHC without ESR1 amplification, p<0.0001 (FIG. 4)): significantly better
overall survival of patients with ESR1-amplified tumors under anti-estrogen therapy with Tamoxifen (compared to patients with tumors not exhibiting ESR1 amplification (FIG. 4)): significantly increased
